The NIST ThermoML archive (doi:10.1016/j.fluid.2015.03.048)
Numbers after ± are expanded uncertainties.

Key:
[1] = 303.15 K, Liquid
[2] = xn = mol fraction of the nth substance listed; conditions: 303.15 K, 100 kPa, Liquid; for viscosity: Capillary tube (Ostwald / Ubbelohde) method; for excess molar volume: Direct dilatometry; for speed of sound: Frequency=3 MHz, Sing-around technique in a fixed-path interferometer; for mass density: Pycnometric method

Cc1cccc([N+](=O)[O-])c1 [3-nitrotoluene]
[1]
Conditions | mass density [kg/m3] | viscosity [mPa·s]
100 kPa, Capillary tube (Ostwald / Ubbelohde) method | – | 1.775 ± 0.016
101.33 kPa, Pycnometric method | 1147.67 ± 12 | –

Cc1cccc(Cl)c1 [3-chlorotoluene] + CC(=O)N(C)C
[2]
Conditions | excess molar volume [m3/mol] | mass density [kg/m3] | speed of sound [m/s] | viscosity [mPa·s]
x2 = 0.0671 | – | 1063.49 ± 11 | 1298 ± 3 | –
x2 = 0.0838 | -1e-08 ± 6e-09 | – | – | 0.783 ± 0.012
x2 = 0.1003 | – | 1059.19 ± 11 | 1307 ± 3 | –
x2 = 0.1242 | -1.4e-08 ± 6e-09 | – | – | 0.786 ± 0.012
x2 = 0.1481 | – | 1053.01 ± 11 | 1317 ± 3 | –
x2 = 0.1735 | – | 1049.73 ± 11 | 1322 ± 3 | –
x2 = 0.1811 | -2e-08 ± 6e-09 | – | – | 0.789 ± 0.012
x2 = 0.2107 | -2.3e-08 ± 6e-09 | – | – | 0.805 ± 0.012
x2 = 0.2255 | – | 1042.98 ± 10 | 1333 ± 3 | –
x2 = 0.2658 | – | 1037.75 ± 10 | 1343 ± 3 | –
x2 = 0.2702 | -2.7e-08 ± 6e-09 | – | – | 0.811 ± 0.012
x2 = 0.3152 | -3e-08 ± 6e-09 | – | – | 0.817 ± 0.013
x2 = 0.3343 | – | 1028.85 ± 10 | 1356 ± 3 | –
x2 = 0.3595 | – | 1025.57 ± 10 | 1362 ± 3 | –
x2 = 0.3897 | -3.5e-08 ± 6e-09 | – | – | 0.823 ± 0.013
x2 = 0.4165 | -3.6e-08 ± 6e-09 | – | – | 0.828 ± 0.013
x2 = 0.4436 | – | 1014.58 ± 10 | 1378 ± 3 | –
x2 = 0.4865 | – | 1008.96 ± 10 | 1385 ± 3 | –
x2 = 0.5035 | -3.7e-08 ± 6e-09 | – | – | 0.832 ± 0.013
x2 = 0.5465 | -3.6e-08 ± 6e-09 | – | – | 0.837 ± 0.013
x2 = 0.5673 | – | 998.38 ± 10 | 1399 ± 3 | –
x2 = 0.6251 | -3.4e-08 ± 6e-09 | – | – | 0.841 ± 0.013
x2 = 0.6638 | – | 985.69 ± 9.9 | 1412 ± 3 | –
x2 = 0.7042 | – | 980.38 ± 9.8 | 1416 ± 3 | –
x2 = 0.7152 | -2.8e-08 ± 6e-09 | – | – | 0.846 ± 0.013
x2 = 0.7517 | -2.5e-08 ± 6e-09 | – | – | 0.85 ± 0.013
x2 = 0.7822 | – | 970.1 ± 9.7 | 1424 ± 3 | –
x2 = 0.8204 | -1.9e-08 ± 6e-09 | – | – | 0.855 ± 0.013
x2 = 0.9182 | – | 952.18 ± 9.6 | 1440 ± 3 | –
x2 = 0.9345 | -9e-09 ± 6e-09 | – | – | 0.86 ± 0.013
